Test [1] addresses T1, SARS-CoV-2 PLpro (nsp3 1564–1878) (Severe acute respiratory syndrome coronavirus 2, UniProt P0DTD1). In words: biochemical. More on the design: FRET-quenched peptide (Pro3) cleavage by PLpro, 10 min pre-incubation, slope over 20 min, normalised to no-compound control. Conditions: low concentration screen, read-out: % of control remaining.
The target in test [2] is T1, SARS-CoV-2 PLpro (nsp3 1564–1878). In words: biochemical. Details: FRET-quenched peptide (Pro3) cleavage by PLpro, 10 min pre-incubation, slope over 20 min, normalised to no-compound control. As to conditions: high concentration screen, read-out: % of control remaining.

The values below come from PMC8286840, “Identifying SARS-CoV-2 antiviral compounds by screening for small molecule inhibitors of Nsp3 papain-like protease” (Biochemical Journal, 2021).

Structures can show the parent of a compound that is named as a salt. Where two headings read alike, the source gives them in different places.

Take `CC(C(O)c1ccc(O)cc1)N1CCC(Cc2ccccc2)CC1` (stereo not drawn) [Ifenprodil tartrate]: the remaining activity at 1.25 µM amounted to 103% in test [1] (Well no.=867) and 102% in test [1] (Well no.=1685). The figures for the remaining activity at 3.75 µM in test [2] (Well no.=867) and in test [2] (Well no.=1685) were 103% and 104%, respectively.

Turning to `O=P1(NCCCl)OCCCN1CCCl` (stereo not drawn) [Ifosfamide], the remaining activity at 1.25 µM in test [1] (Well no.=2220) is 97.2%. Further, in test [2] (Well no.=2220), the remaining activity at 3.75 µM worked out at 98.6%.

Consider `CC[C@H](C)[C@H](N)C(=O)N1CCC[C@H]1C(=O)N[C@H](C(=O)O)[C@@H](C)CC` [Ile-Pro-Ile], for which the remaining activity at 1.25 µM in test [1] (Well no.=5849) amounted to 100%. In test [2] (Well no.=5849), the remaining activity at 3.75 µM stood at 99.6%.

Consider `CNC(=O)[C@H](Cc1c[nH]c2ccccc12)NC(=O)[C@@H](CC(=O)NO)CC(C)C` [Ilomastat (GM6001, Galardin)], for which the remaining activity at 1.25 µM in test [1] (Well no.=9030) was 101%. Also, the remaining activity at 3.75 µM in test [2] (Well no.=9030) was found to be 94.4%.

Consider `COc1cc(C(C)=O)ccc1OCCCN1CCC(c2noc3cc(F)ccc23)CC1` [Iloperidone], for which the remaining activity at 1.25 µM in test [1] (Well no.=7333) worked out at 102%. The remaining activity at 3.75 µM in test [2] (Well no.=7333) came out at 91.9%.

As to `Cc1ccc(NC(=O)c2ccc(CN3CCN(C)CC3)cc2)cc1Nc1nccc(-c2cccnc2)n1` [Imatinib], the remaining activity at 1.25 µM came to 102% in test [1] (Well no.=1611) and 99.7% in test [1] (Well no.=2839). The remaining activity at 3.75 µM in test [2] (Well no.=2839) stood at 102%.

With `O=C1CCC(c2ccc(-n3ccnc3)cc2)=NN1` [Imazodan], the remaining activity at 1.25 µM in test [1] (Well no.=764) stood at 97.3%. In test [2] (Well no.=764), the remaining activity at 3.75 µM is 97.7%.

`N=C(N)SCCc1c[nH]cn1` [Imetit dihydrobromide]: the remaining activity at 1.25 µM in test [1] (Well no.=779) was 94.3%. In addition, the remaining activity at 3.75 µM in test [2] (Well no.=779) is 94.6%.

For the molecule `Cc1nccn1CCC(C(N)=O)(c1ccccc1)c1ccccc1` [Imidafenacin], the remaining activity at 1.25 µM in test [1] (Well no.=6377) turned out to be 102%. Also, in test [2] (Well no.=6377), the remaining activity at 3.75 µM is 97.6%.

As to `CCOC(=O)[C@H](CCc1ccccc1)N[C@@H](C)C(=O)N1C(=O)N(C)C[C@H]1C(=O)O` [Imidapril (hydrochloride)], the remaining activity at 1.25 µM in test [1] (Well no.=7686) came to 99.8%. In test [2] (Well no.=7686), the remaining activity at 3.75 µM was 98%.

For the molecule `CCOC(=O)[C@H](CCc1ccccc1)N[C@@H](C)C(=O)N1C(=O)N(C)C[C@H]1C(=O)O` [Imidapril hydrochloride], the remaining activity at 1.25 µM in test [1] (Well no.=5696) is 91.8%. Further, the remaining activity at 3.75 µM in test [2] (Well no.=5696) came to 92.9%.

For `CC(C)Oc1ccc(C(=O)Cn2ccnc2)cc1-n1c(CN2CCN(C(=O)COc3ccc(Cl)cc3)CC2)nc2ccccc2c1=O` [Imidazole ketone erastin], the remaining activity at 1.25 µM in test [1] (Well no.=6884) was found to be 95.5%. Moreover, the remaining activity at 3.75 µM in test [2] (Well no.=6884) was 97%.

Take `O=C(O)Cc1cnc[nH]1` [Imidazole-4-acetic acid hydrochloride]: in test [1] (Well no.=620), the remaining activity at 1.25 µM was 97.6%. Moreover, the remaining activity at 3.75 µM in test [2] (Well no.=620) came to 101%.

For `CCn1ccnc1CC1COc2ccccc2O1` (stereo not drawn) [Imiloxan hydrochloride], the remaining activity at 1.25 µM in test [1] (Well no.=1063) turned out to be 97.9%. Besides, the remaining activity at 3.75 µM in test [2] (Well no.=1063) came out at 97%.

As for `C[C@@H](O)[C@H]1C(=O)N2C(C(=O)O)=C(SCCNC=N)C[C@H]12` [Imipenem], the remaining activity at 1.25 µM was 102% in test [1] (Well no.=1935) and 104% in test [1] (Well no.=5494). Further, the remaining activity at 3.75 µM in test [2] (Well no.=1935) was found to be 103%; in test [2] (Well no.=5494) it was 104%.

As for `CN(C)CCCN1c2ccccc2CCc2ccccc21` [Imipramine hydrochloride], the remaining activity at 1.25 µM in test [1] (Well no.=1061) came to 100%. In addition, in test [2] (Well no.=1061), the remaining activity at 3.75 µM worked out at 97.7%.

As for `CC(C)Cn1cnc2c(N)nc3ccccc3c21` [Imiquimod], the remaining activity at 1.25 µM in test [1] (Well no.=2222) was found to be 94%; in test [1] (Well no.=8069) it was 109%. For the same molecule, the remaining activity at 3.75 µM is 94.3% in test [2] (Well no.=2222) and 108% in test [2] (Well no.=8069).

On to `C[C@H]1CC[C@@H]2N(C1)C[C@H]1[C@@H]3C[C@H]4[C@@H](CC(=O)[C@H]5C[C@@H](O)CC[C@@]54C)[C@@H]3CC[C@H]1[C@]2(C)O` [Imperialine], for which the remaining activity at 1.25 µM in test [1] (Well no.=3155) came to 93.8%. Also, the remaining activity at 3.75 µM in test [2] (Well no.=3155) is 101%.

As to `CC(Nc1nc(N2CCCC2)nc2ccccc12)c1ccccc1` (stereo not drawn) [Importazole], the remaining activity at 1.25 µM in test [1] (Well no.=5622) came out at 95.6%. Also, the remaining activity at 3.75 µM in test [2] (Well no.=5622) worked out at 96.8%.

In the case of `CCC(Sc1nnc2c(n1)[nH]c1ccccc12)C(=O)N1c2ccccc2Sc2ccccc21` (stereo not drawn) [Inauhzin], in test [1] (Well no.=6158), the remaining activity at 1.25 µM was found to be 100%. Besides, the remaining activity at 3.75 µM in test [2] (Well no.=6158) turned out to be 91.7%.

Regarding `CCc1cc2c(cc1CC)CC(NC[C@H](O)c1ccc(O)c3[nH]c(=O)ccc13)C2` [Indacaterol (maleate)], the remaining activity at 1.25 µM in test [1] (Well no.=8199) turned out to be 105%. Also, the remaining activity at 3.75 µM in test [2] (Well no.=8199) is 95%.

`CCc1cc2c(cc1CC)CC(NC[C@H](O)c1ccc(O)c3[nH]c(=O)ccc13)C2` [Indacaterol Maleate]: the remaining activity at 1.25 µM in test [1] (Well no.=5323) was found to be 101%. Moreover, in test [2] (Well no.=5323), the remaining activity at 3.75 µM was determined as 98.4%.

As to `CC1Cc2ccccc2N1NC(=O)c1ccc(Cl)c(S(N)(=O)=O)c1` (stereo not drawn) [Indapamide], the remaining activity at 1.25 µM in test [1] (Well no.=2224) turned out to be 98.6%. In addition, in test [2] (Well no.=2224), the remaining activity at 3.75 µM came to 103%.

Regarding `CN[C@@H]1C[C@@H](c2ccc(Cl)c(Cl)c2)c2ccccc21` [Indatraline hydrochloride], in test [1] (Well no.=969), the remaining activity at 1.25 µM was found to be 106%. Also, the remaining activity at 3.75 µM in test [2] (Well no.=969) came out at 106%.

For `O=C(Nc1ccncc1)C(=O)c1cn(Cc2ccc(Cl)cc2)c2ccccc12` [Indibulin], the remaining activity at 1.25 µM in test [1] (Well no.=6784) came out at 98.6%. Besides, in test [2] (Well no.=6784), the remaining activity at 3.75 µM came out at 98.9%.

Regarding `O=Nc1c(-c2c(O)[nH]c3ccccc23)[nH]c2ccccc12` [Indirubin-3'-oxime], the remaining activity at 1.25 µM in test [1] (Well no.=668) is 95.2%. In addition, the remaining activity at 3.75 µM in test [2] (Well no.=668) amounted to 92.9%.

Take `O=Nc1c(-c2c(O)[nH]c3ccccc23)[nH]c2ccccc12` [Indirubin-3?-monoxime]: the remaining activity at 1.25 µM in test [1] (Well no.=2358) is 99.7%. In addition, the remaining activity at 3.75 µM in test [2] (Well no.=2358) stood at 106%.

As for `O=C1Nc2ccccc2/C1=C1/Nc2ccccc2C1=O` [Indirubin], the remaining activity at 1.25 µM in test [1] (Well no.=3771) came to 95.4%. Besides, the remaining activity at 3.75 µM in test [2] (Well no.=3771) was found to be 101%.

Turning to `NS(=O)(=O)c1ccc(S(=O)(=O)Nc2cccc3c(Cl)c[nH]c23)cc1` [Indisulam], in test [1] (Well no.=6068), the remaining activity at 1.25 µM was found to be 94.4%. The remaining activity at 3.75 µM in test [2] (Well no.=6068) amounted to 95%.

Regarding `O=C(O)Cc1c[nH]c2ccccc12` [Indole-3-acetic acid], the remaining activity at 1.25 µM in test [1] (Well no.=3667) was 101%. Besides, in test [2] (Well no.=3667), the remaining activity at 3.75 µM is 104%.

As to `O=C(O)CCCc1c[nH]c2ccccc12` [Indole-3-butyric acid], the remaining activity at 1.25 µM in test [1] (Well no.=3210) came to 91.8%. For the same molecule, in test [2] (Well no.=3210), the remaining activity at 3.75 µM came out at 98.5%.
